Columns and labels:
Assay type in all cases: in vivo
[1] = test system: Chemotherapeutic agent-caused diarrhea models of Balb/c mice; assay: Examples 1-229 (Table 3): oral CDK inhibitor, relief of diarrhea caused by a chemotherapeutic agent;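 also: percent of treated mice whose diarrhea grade fell below chemotherapy-group average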
[2] = test system: diarrhea caused by a chemotherapeutic agent in Balb/c mice; assay: Examples 343-381 (Table 6): oral versus intravenous CDK inhibitor, relief of diarrhea caused by a chemotherapeutic agent;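 also: percent of treated mice whose diarrhea grade fell below chemotherapy-group average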
Outline: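 Balb/c mice (10 per group) received the CDK inhibitor orally or by tail-vein injection, or vehicle, followed by a chemotherapeutic agent or its solvent. Diarrhea grade was scored daily.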

[3] = test system: constipation caused by the continuous administration of a chemotherapeutic agent in Balb/c mice; assay: Examples 470-481 (Table 10): oral CDK inhibitor, constipation caused by continuous administration of a chemotherapeutic agent; details: Fluorouracil (5-Fu) intraperitoneal injection 100 mg/kg once a day
Text: Balb/c mice were fed for 1 week, and then divided into groups. The experiment was divided into a control group, a chemotherapeutic agent group, and a CDK inhibitor group, each of which comprised 10 mice, to perform the administration experiment, for which the administration dosage, mode, time and frequency were shown in Table 10. The control group: being intragastrically administered with the same solvent as that used in the CDK inhibitor group (the time was shown in Table 10), and then being injected/intragastrically administered with the same solvent as that used in the chemotherapeutic agent group (the administration mode was shown in Table 10): the chemotherapeutic agent group: being intragastrically administered with the same solvent as that used in the CDK inhibitor group (the time was shown in Table 10), and then being injected/intragastrically administered with the chemotherapeutic agent (the type, administration mode, dosage and duration time were shown in Table 10): the CDK inhibitor group: being intragastrically administered with the CDK inhibitor (the time was shown in Table 10), and then being administered with the chemotherapeutic agent (the type, administration mode, dosage and duration time were shown in Table 10).
The feces reduction rate was calculated with reference to the method of Ji Eun Kim (Lab Anim Res. 2016 December: 32(4): 231-240.). Feces reduction rate (%)=(the control group−the chemotherapeutic agent group or the CDK inhibitor group)/the control group*100%
It is regarded as effective remission when the feces reduction rate of mice in the CDK inhibitor group is reduced compared with that in the chemotherapeutic agent group.
The feces amount of mice within 3 hours was observed and recorded every day. At the end of the experiment, the number of mice in the CDK inhibitor group whose feces reduction rate was lower than that of mice in the chemotherapeutic agent group was recorded. Table 10 lists various animal experiment combinations of chemotherapeutic agents and CDK inhibitors, as well as the corresponding experimental results.

For `CC(=O)c1c(C)c2cnc(Nc3ccc(N4CCNCC4)cn3)nc2n(C2CCCC2)c1=O` [Palbociclib], the “Relative remission rate (%)” value ([1]; Example 1, Fluorouracil (5-Fu) intraperitoneal injection 125 mg/kg single, CDK inhibitor oral 150 mg/kg single 0.5 h before, cycle 10 days) was 20%, the “Relative remission rate (%)” value ([1]; Example 2, Fluorouracil (5-Fu) intraperitoneal injection 125 mg/kg single, CDK inhibitor oral 150 mg/kg single 1 h before, cycle 10 days) was 20% and the “Relative remission rate (%)” value ([1]; Example 3, Fluorouracil (5-Fu) intraperitoneal injection 125 mg/kg single, CDK inhibitor oral 150 mg/kg single 2 h before, cycle 10 days) was 30%. For the same compound, the “Relative remission rate (%)” value ([1]; Example 4, Fluorouracil (5-Fu) intraperitoneal injection 125 mg/kg single, CDK inhibitor oral 150 mg/kg single 3 h before, cycle 10 days) was 40%, the “Relative remission rate (%)” value ([1]; Example 5, Fluorouracil (5-Fu) intraperitoneal injection 125 mg/kg single, CDK inhibitor oral 150 mg/kg single 4 h before, cycle 10 days) was 40% and the “Relative remission rate (%)” value ([1]; Example 6, Fluorouracil (5-Fu) intraperitoneal injection 125 mg/kg single, CDK inhibitor oral 150 mg/kg single 5 h before, cycle 10 days) was 50%. For the same compound, the “Relative remission rate (%)” value ([1]; Example 7, Fluorouracil (5-Fu) intraperitoneal injection 125 mg/kg single, CDK inhibitor oral 150 mg/kg single 6 h before, cycle 10 days) was 50%, the “Relative remission rate (%)” value ([1]; Example 8, Fluorouracil (5-Fu) intraperitoneal injection 125 mg/kg single, CDK inhibitor oral 150 mg/kg single 7 h before, cycle 10 days) was 60% and the “Relative remission rate (%)” value ([1]; Example 9, Fluorouracil (5-Fu) intraperitoneal injection 125 mg/kg single, CDK inhibitor oral 150 mg/kg single 8 h before, cycle 10 days) was 60%. For the same compound, the “Relative remission rate (%)” value ([1]; Example 10, Fluorouracil (5-Fu) intraperitoneal injection 125 mg/kg single, CDK inhibitor oral 150 mg/kg single 9 h before, cycle 10 days) was 50%, the “Relative remission rate (%)” value ([1]; Example 11, Fluorouracil (5-Fu) intraperitoneal injection 125 mg/kg single, CDK inhibitor oral 150 mg/kg single 10 h before, cycle 10 days) was 60% and the “Relative remission rate (%)” value ([1]; Example 12, Fluorouracil (5-Fu) intraperitoneal injection 125 mg/kg single, CDK inhibitor oral 150 mg/kg single 11 h before, cycle 10 days) was 70%. The “Relative remission rate (%)” value ([1]; Example 13, Fluorouracil (5-Fu) intraperitoneal injection 125 mg/kg single, CDK inhibitor oral 150 mg/kg single 12 h before, cycle 10 days) was 80%, the “Relative remission rate (%)” value ([1]; Example 14, Fluorouracil (5-Fu) intraperitoneal injection 125 mg/kg single, CDK inhibitor oral 12.5 mg/kg single 13 h before, cycle 10 days) was 40% and the “Relative remission rate (%)” value ([1]; Example 15, Fluorouracil (5-Fu) intraperitoneal injection 125 mg/kg single, CDK inhibitor oral 25 mg/kg single 13 h before, cycle 10 days) was 80%. The “Relative remission rate (%)” value ([1]; Example 16, Fluorouracil (5-Fu) intraperitoneal injection 125 mg/kg single, CDK inhibitor oral 50 mg/kg single 13 h before, cycle 10 days) was 60%, the “Relative remission rate (%)” value ([1]; Example 17, Fluorouracil (5-Fu) intraperitoneal injection 125 mg/kg single, CDK inhibitor oral 100 mg/kg single 13 h before, cycle 10 days) was 80% and the “Relative remission rate (%)” value ([1]; Example 18, Fluorouracil (5-Fu) intraperitoneal injection 125 mg/kg single, CDK inhibitor oral 150 mg/kg single 13 h before, cycle 10 days) was 80%. For the same compound, the “Relative remission rate (%)” value ([1]; Example 19, Fluorouracil (5-Fu) intraperitoneal injection 125 mg/kg single, CDK inhibitor oral 250 mg/kg single 13 h before, cycle 10 days) was 60%, the “Relative remission rate (%)” value ([1]; Example 20, Fluorouracil (5-Fu) intraperitoneal injection 125 mg/kg single, CDK inhibitor oral 150 mg/kg single 14 h before, cycle 10 days) was 70% and the “Relative remission rate (%)” value ([1]; Example 21, Fluorouracil (5-Fu) intraperitoneal injection 125 mg/kg single, CDK inhibitor oral 150 mg/kg single 16 h before, cycle 10 days) was 60%. The “Relative remission rate (%)” value ([1]; Example 22, Fluorouracil (5-Fu) intraperitoneal injection 125 mg/kg single, CDK inhibitor oral 150 mg/kg single 18 h before, cycle 10 days) was 60%, the “Relative remission rate (%)” value ([1]; Example 23, Fluorouracil (5-Fu) intraperitoneal injection 125 mg/kg single, CDK inhibitor oral 150 mg/kg single 20 h before, cycle 10 days) was 50% and the “Relative remission rate (%)” value ([1]; Example 24, Fluorouracil (5-Fu) intraperitoneal injection 125 mg/kg single, CDK inhibitor oral 150 mg/kg single 22 h before, cycle 10 days) was 40%. The “Relative remission rate (%)” value ([1]; Example 25, Fluorouracil (5-Fu) intraperitoneal injection 125 mg/kg single, CDK inhibitor oral 150 mg/kg single 24 h before, cycle 10 days) was 40%, the “Relative remission rate (%)” value ([1]; Example 26, Fluorouracil (5-Fu) intraperitoneal injection 125 mg/kg single, CDK inhibitor oral 150 mg/kg single 48 h before, cycle 10 days) was 0% and the “Relative remission rate (%)” value ([1]; Example 44, Fluorouracil (5-Fu) oral administration 250 mg/kg single, CDK inhibitor oral 125 mg/kg single 4 h before, cycle 10 days) was 60%. For the same compound, the “Relative remission rate (%)” value ([1]; Example 88, Oxaliplatin intravenous injection 17.5 mg/kg single, CDK inhibitor oral 150 mg/kg single 6 h before, cycle 8 days) was 50%, the “Relative remission rate (%)” value ([1]; Example 129, Irinotecan (CPT-11) intravenous injection 200 mg/kg single, CDK inhibitor oral 200 mg/kg single 14 h before, cycle 7 days) was 60% and the “Relative remission rate (%)” value ([1]; Example 166, Docetaxel (DTX) intramuscular injection 20 mg/kg single, CDK inhibitor oral 150 mg/kg single 5 h before, cycle 8 days) was 80%. For the same compound, the “Relative remission rate (%)” value ([1]; Example 228, Etoposide 60 mg/kg and Carboplatin 5 mg/kg intraperitoneal injection single, CDK inhibitor oral 150 mg/kg single, 12 h before, 10 days) was 60%, the Relative remission rate ([2]; Example 343, Etoposide intravenous injection 75 mg/kg single, CDK inhibitor intravenous injection 150 mg/kg single, 0.5 h before chemotherapeutic agent, cycle 8 days) was 10% and the Relative remission rate ([2]; Example 343, Etoposide intravenous injection 75 mg/kg single, CDK inhibitor oral 150 mg/kg single, 0.5 h before chemotherapeutic agent, cycle 8 days) was 40%. For the same compound, the Relative remission rate ([2]; Example 344, Etoposide intravenous injection 75 mg/kg single, CDK inhibitor intravenous injection 150 mg/kg single, 4 h before, cycle 8 days) was 10%, the Relative remission rate ([2]; Example 344, Etoposide intravenous injection 75 mg/kg single, CDK inhibitor oral 150 mg/kg single, 4 h before, cycle 8 days) was 80% and the Relative remission rate ([2]; Example 345, Etoposide intravenous injection 75 mg/kg single, CDK inhibitor intravenous injection 150 mg/kg single, 8 h before, cycle 8 days) was 10%. It also gave a Relative remission rate ([2]; Example 345, Etoposide intravenous injection 75 mg/kg single, CDK inhibitor oral 150 mg/kg single, 8 h before, cycle 8 days) of 60%, a Relative remission rate ([2]; Example 346, Etoposide intravenous injection 75 mg/kg single, CDK inhibitor intravenous injection 150 mg/kg single, 12 h before, cycle 8 days) of 20% and a Relative remission rate ([2]; Example 346, Etoposide intravenous injection 75 mg/kg single, CDK inhibitor oral 150 mg/kg single, 12 h before, cycle 8 days) of 60%. The Relative remission rate ([2]; Example 347, Etoposide intravenous injection 75 mg/kg single, CDK inhibitor intravenous injection 150 mg/kg single, 24 h before, cycle 8 days) was 10%, the Relative remission rate ([2]; Example 347, Etoposide intravenous injection 75 mg/kg single, CDK inhibitor oral 150 mg/kg single, 24 h before, cycle 8 days) was 60% and the Relative remission rate ([2]; Example 357, Etoposide and cisplatin intravenous injection 50 (E) 5 (Cis) mg/kg single, CDK inhibitor intravenous injection 125 mg/kg single, 4 h before, cycle 7 days) was 20%. The Relative remission rate ([2]; Example 357, Etoposide and cisplatin intravenous injection 50 (E) 5 (Cis) mg/kg single, CDK inhibitor oral 125 mg/kg single, 4 h before, cycle 7 days) was 70%, the Relative remission rate ([2]; Example 358, Etoposide and cisplatin intravenous injection 50 (E) 5 (Cis) mg/kg single, CDK inhibitor intravenous injection 125 mg/kg single, 24 h before, cycle 7 days) was 10% and the Relative remission rate ([2]; Example 358, Etoposide and cisplatin intravenous injection 50 (E) 5 (Cis) mg/kg single, CDK inhibitor oral 125 mg/kg single, 24 h before, cycle 7 days) was 40%. The Relative remission rate ([2]; Example 366, Carboplatin (CBP) oral administration 200 mg/kg single, CDK inhibitor intravenous injection 150 mg/kg single, 24 h before, cycle 10 days) was 10%, the Relative remission rate ([2]; Example 366, Carboplatin (CBP) oral administration 200 mg/kg single, CDK inhibitor oral 150 mg/kg single, 24 h before, cycle 10 days) was 50% and the Relative remission rate ([2]; Example 378, Gemcitabine (GEM) intravenous injection 120 mg/kg single, CDK inhibitor intravenous injection 200 mg/kg single, 12 h before, cycle 8 days) was 10%. It also gave a Relative remission rate ([2]; Example 378, Gemcitabine (GEM) intravenous injection 120 mg/kg single, CDK inhibitor oral 200 mg/kg single, 12 h before, cycle 8 days) of 50%, a Relative remission rate ([2]; Example 379, Gemcitabine (GEM) intravenous injection 120 mg/kg single, CDK inhibitor intravenous injection 200 mg/kg single, 12 h before, cycle 8 days) of 20% and a Relative remission rate ([2]; Example 379, Gemcitabine (GEM) intravenous injection 120 mg/kg single, CDK inhibitor oral 200 mg/kg single, 12 h before, cycle 8 days) of 60%. It also gave a Remission rate ([3]; Examples 470-473 (one value given; 2 h, 4 h, 6 h, 8 h before), for 3 days, CDK inhibitor oral 150 mg/kg once a day, for 3 days, cycle 10 days) of 40%, a Remission rate ([3]; Examples 474-477 (one value given; 2 h, 4 h, 6 h, 8 h before), for 5 days, CDK inhibitor oral 125 mg/kg once a day, for 5 days, cycle 9 days) of 50% and a Remission rate ([3]; Examples 478-481 (one value given; 2 h, 4 h, 6 h, 8 h before), for 7 days, CDK inhibitor oral 125 mg/kg once a day, for 7 days, cycle 10 days) of 10%.

— patent publication US20240293413A1, “COMPOUND AND METHOD FOR TREATING CHEMOTHERAPY-RELATED GASTROINTESTINAL SIDE EFFECTS” (ONQUALITY PHARMACEUTICALS CHINA LTD., priority 2021, published 2024)
